Experimental findings from patent publication US20050085509A1, “Piperidin-2-one derivative compounds and drugs containing these compounds as the active ingredient” (priority 2001, published 2005) are described below.

Some results are limits rather than exact numbers.

Assay [1] concerns the target T1, recombinant human p38αMAP kinase (Homo sapiens, UniProt Q16539).
T1 construct: purchased Upstate Biotechnology Inc. #14-251
The assay is described as follows: p38αMAP kinase inhibitory activity (2): ATF-2 phosphorylation, Alpha Screen. In kind it is biochemical. The settings on record: 30° C., 30 minutes, read-out: IC50, inhibition of ATF-2 phosphorylation by p38αMAP kinase. The procedure:
(2) Study of p38αMAP Kinase Inhibitory Activity (2)
Using activation transcription factor 2 (hereinafter abbreviated as ATF-2) which is a substrate of p38αMAP kinase, the inhibition effect of the compound of the present invention on the ATF-2 phosphorylation by recombinant human p38αMAP kinase was examined.
A kinase buffer (25 mM Tris-HCl (pH 7.5), 5 mM β-glycerophosphate, 2 mM dithiothreitol, 0.1 mM Na3VO4, 10 mM MgCl2) containing recombinant human p38αMAP kinase (Upstate Biotechnology #14-251) (5 μL) was added to a 384-well plate for fluorescence measurement ([…] protein/well). […] Separately, 5 μL of a substrate mixture prepared with the kinase buffer (biotinylated ATF-2 (5 μg/mL) (Upstate Biotechnology, #14-432), adenosine triphosphate (90 μmol/L) (Sigma #FL-AAS) and anti-phosphorylated ATF-2 antibody (20-fold dilution) (Cell Signaling Technology, #9221L) were added and an enzyme reaction was carried out at 30° C. for 30 minutes. After completion of the reaction, the enzyme reaction was terminated by adding 5 μL of Hepes buffer containing 0.25% BSA and 100 mM EDTA. The amount of complex of phosphorylated ATF2 and anti-phosphorylated ATF2 generated by this reaction was measured using Alpha Screen™ Rabbit Detection kit (Packard #6760607). […]

Assay [2] has as its system THP-1. The assay is described as follows: Inhibition activity against TNF-α production using human cell line THP-1. In kind it is cell-based. The settings on record: 1.5 h, THP-1 cells, LPS stimulation, 90 minutes, ELISA, read-out: IC50, inhibition of LPS-induced TNF-α production. The procedure: (4) Inhibition Activity Against TNF-α Production Using Human Cell Line
Using THP-1, which is a human monocyte cell line, the inhibition effect of the compound of the present invention on the TNF-α production induced by lipopolyliposaccharide (LPS) stimulation was studied.
Each 50 μL of lipopolyliposaccharide (LPS; Difco #3120-25-0) prepared at the concentration of 40 ng/mL using RPMI-1640 medium containing 10% fetal calf serum (hereinafter abbreviated as RPMI-1640) and RPMI-1640 containing the compound of the present invention was added to a 96-well plate for tissue culture. […] After completion of the reaction, the culture medium supernatant was recovered and the amount of produced TNF-α was measured using an ELISA kit (Invitrogen, #850090192).
The inhibition activity against TNF-α production, which is the effect of the compound of the present invention, was calculated as an inhibition rate (%) by the following formula. Inhibition rate (%)={(AC−AX)/(AC−AB)}×100 • AB: Measured value without LPS induction • AC: Measured value with LPS induction in the absence of the compound • AX: Measured value with LPS induction in the presence of the compound
(ELISA stands for enzyme-linked immunosorbent assay.)

The target of assay [3] is T1, recombinant human p38αMAP kinase. The assay is described as follows: p38αMAP kinase inhibitory activity (1): ATF-2 phosphorylation, Western blotting. It counts as biochemical. The following applies: Western blotting with anti-phosphorylated ATF-2 antibody; FIG. 1. The text has this: (1) Study of p38αMAP Kinase Inhibitory Activity (1)
Using activation transcription factor 2 (activating transcription factor 2; ATF-2, Cell Signaling Inc., #9224L) which is a substrate of p38αMAP kinase, the inhibitory effect of the compound of the present invention on the ATF-2 phosphorylation by recombinant human p38αMAP kinase (Upstate Biotechnology Inc., #14-251) was studied by the Western-blotting method using the anti-phosphorylated ATF-2 antibody (Cell Signaling Inc., #9221L). In other words, 10 μL of a solution of the compound of the present invention at a known concentration was added to 10 μL of the kinase buffer (Cell Signaling Inc., #9802) containing recombinant human p38αMAP kinase (100 ng/tube) and pre-incubated for 10 minutes at 30° C. Then, 20 μL of adenosine triphosphate (ATP)/ATF-2 mixture was added and after the incubation of 30 minutes at 30° C., 20 μL of SDS buffer (187.5 mM Tris/6% SDS/30% glycerol/150 mM DTT/0.03% bromophenol blue) was added to stop the enzyme reaction. After heating at 100° C. for 5 minutes, mixing and centrifugation were conducted. After re-mixing, 20 μL of the sample was subjected to an electrophoresis on SDS-PAGE gel (10-20%, Daiichi Pure Chemicals Co., Ltd.). […] After washing with TBS-T solution, phosphorylated ATF-2 was detected using Western blotting detection reagent (Amersham Pharmacia Biotech).
In general terms: A western blot detects proteins with antibodies after separation by electrophoresis.

T1 sequence (Q16539 whole entry): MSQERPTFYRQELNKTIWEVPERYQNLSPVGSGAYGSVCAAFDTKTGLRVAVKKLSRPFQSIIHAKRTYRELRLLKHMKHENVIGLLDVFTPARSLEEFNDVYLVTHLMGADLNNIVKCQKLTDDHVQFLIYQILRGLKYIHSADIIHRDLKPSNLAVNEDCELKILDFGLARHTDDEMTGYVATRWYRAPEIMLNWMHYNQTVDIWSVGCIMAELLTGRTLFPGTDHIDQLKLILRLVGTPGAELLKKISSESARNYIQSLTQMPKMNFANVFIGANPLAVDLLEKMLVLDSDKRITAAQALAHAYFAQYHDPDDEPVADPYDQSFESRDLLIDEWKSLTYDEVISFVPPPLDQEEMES

For orientation: IC50 means the concentration needed to halve the response being measured. Turning to `O=C1CCC(Cc2ccc(F)cc2F)CN1c1c(Cl)cccc1Cl` (stereo not drawn) [Example 1 (1), 1-(2,6-dichlorophenyl)-5-(2,4-difluorobenzyl)piperidin-2-one], the IC50 in assay [1] was 42.9 nM; in assay [2], 14.5 nM. Moreover, in assay [3], the “concentration at which ATF-2 phosphorylation by p38αMAP kinase was inhibited” value is not below 0.3 µM.
